According to patent US20100047373A9, “Method for Extracting Plants of the Genus Pelargonium, Extract Produced According to Said Method, and Use Thereof” (EMSPHARM GMBH, priority 2005, published 2010):

System: EMC virus/L929 (IFN) test model
Test: Cytoprotective effect / IFN values in the EMC virus/L929 (IFN) test model
Type: cell-based, murine
Details: determined from 8 standard curves
Protocol: Determining the Cytoprotective Effect by Obtaining the Values for IFN in the EMC Virus/L929 (IFN) Test Model
L929 (IFN) cells (batch no. 5577) were cultured, trypsinized, washed and counted in 100-mL culture dishes. The suspension was adjusted to 2×10^5 cells/mL and sown in microtitre plates with 2×10^4 cells/well, which were incubated over night at 37° C., 5% CO2. After that, the supernatant was replaced by 100 μL each medium control, cell control, virus control with rMuIFN-γ control, rMuIFN-γ standard (100 U/mL) and test solution, all of which were diluted lineally.
The samples were incubated for exactly eight hours at 37° C., 5% CO2. After the end of the incubation time, 100 μL each of the vital suspension used were pipetted into the vital and interferon controls and into the test solutions and again incubated over night at 37° C., 5% CO2.
After 22 hours, fully developed viral activity appeared (cell lysis must be distinctly pronounced in the vital control), so that the lysis was interrupted. The supernatants were discarded via the wash basin 100 μl of a 0.5% crystal violet solution were pipetted into each well. […] The absorption of the crystal violet staining was determined on the ELISA reader at 550 nm. […] The ED50 value of the rMuIFN-γ standard was at 1,076 U/mL (determined from 8 standard curves).

rMuIFN-γ standard: rMuIFN-γ standard (100 U/mL) used in the EMC virus/L929 (IFN) test
ED50 value of the rMuIFN-γ standard: 1,076 U/mL
